Reference: the NIST ThermoML archive (doi:10.1021/je400917j)
Values joined by “and” are separate entries in the source; they are usually repeats but may differ in a detail not shown here. Equal entries are not always repeated. Numbers after ± are expanded uncertainties.

Columns and labels:
[1] = 101 kPa, Liquid; for mass density: Vibrating tube method
[2] = xn = mol fraction of the nth substance listed; details: 101 kPa, Liquid; for mass density: Vibrating tube method

Compound | viscosity ([1]; 298.15 K) | mass density ([1]; 298.15 K) | viscosity ([1]; 303.15 K) | mass density ([1]; 303.15 K) | viscosity ([1]; 308.15 K) | mass density ([1]; 308.15 K) | viscosity ([1]; 313.15 K) | mass density ([1]; 313.15 K) | further results
CCCCCC(C)O (stereo not drawn) [2-heptanol] | 5.3 ± 0.15 mPa·s | 813.2 ± 0.2 kg/m3 | 4.48 ± 0.13 mPa·s | 809.5 ± 0.2 kg/m3 | 3.68 ± 0.11 mPa·s | 805.7 ± 0.2 kg/m3 | 2.96 ± 0.086 mPa·s | 801.5 ± 0.2 kg/m3 | –
CCCCC(C)O (stereo not drawn) [2-hexanol] | 4.1 ± 0.15 mPa·s | 810.1 ± 0.2 kg/m3 | 3.41 ± 0.12 mPa·s | 806.1 ± 0.2 kg/m3 | 2.82 ± 0.1 mPa·s | 802.1 ± 0.2 kg/m3 | 2.22 ± 0.083 mPa·s | 798 ± 0.2 kg/m3 | –
CC(=O)N(C)C [N,N-dimethylethanamide] | 0.94 ± 0.03 mPa·s | 936.5 ± 0.2 kg/m3 | 0.87 ± 0.03 mPa·s | 932 ± 0.2 kg/m3 | 0.82 ± 0.03 mPa·s and 0.8 ± 0.03 mPa·s | 927.8 ± 0.2 kg/m3 | 0.75 ± 0.02 mPa·s | 923.5 ± 0.2 kg/m3 | –
CC(=O)N(C)C [N,N-dimethylethanamide] + CCCC(C)O | – | – | – | – | – | – | – | – | mass density ([2]; 298.15 K, x1 = 1): 936.5 ± 0.2 kg/m3; viscosity ([2]; 298.15 K, x1 = 1): 0.94 ± 0.029 mPa·s; mass density ([2]; 303.15 K, x1 = 1): 932 ± 0.2 kg/m3; viscosity ([2]; 303.15 K, x1 = 1): 0.87 ± 0.027 mPa·s; mass density ([2]; 308.15 K, x1 = 1): 927.8 ± 0.2 kg/m3; viscosity ([2]; 308.15 K, x1 = 1): 0.8 ± 0.025 mPa·s; mass density ([2]; 313.15 K, x1 = 1): 923.5 ± 0.2 kg/m3; viscosity ([2]; 313.15 K, x1 = 1): 0.75 ± 0.023 mPa·s
CC(=O)N(C)C [N,N-dimethylethanamide] + CCCCC(C)O | – | – | – | – | – | – | – | – | mass density ([2]; 298.15 K, x1 = 1): 936.5 ± 0.2 kg/m3; viscosity ([2]; 298.15 K, x1 = 1): 0.94 ± 0.037 mPa·s; mass density ([2]; 303.15 K, x1 = 1): 932 ± 0.2 kg/m3; viscosity ([2]; 303.15 K, x1 = 1): 0.87 ± 0.035 mPa·s; mass density ([2]; 308.15 K, x1 = 1): 927.8 ± 0.2 kg/m3; viscosity ([2]; 308.15 K, x1 = 1): 0.8 ± 0.032 mPa·s; mass density ([2]; 313.15 K, x1 = 1): 923.5 ± 0.2 kg/m3; viscosity ([2]; 313.15 K, x1 = 1): 0.75 ± 0.031 mPa·s
CC(=O)N(C)C [N,N-dimethylethanamide] + CCCCCC(C)O | – | – | – | – | – | – | – | – | mass density ([2]; 298.15 K, x1 = 1): 936.5 ± 0.2 kg/m3; viscosity ([2]; 298.15 K, x1 = 1): 0.94 ± 0.029 mPa·s; mass density ([2]; 303.15 K, x1 = 1): 932 ± 0.2 kg/m3; viscosity ([2]; 303.15 K, x1 = 1): 0.87 ± 0.027 mPa·s; mass density ([2]; 308.15 K, x1 = 1): 927.8 ± 0.2 kg/m3; viscosity ([2]; 308.15 K, x1 = 1): 0.8 ± 0.025 mPa·s; mass density ([2]; 313.15 K, x1 = 1): 923.5 ± 0.2 kg/m3; viscosity ([2]; 313.15 K, x1 = 1): 0.75 ± 0.023 mPa·s
CCC(C)O (stereo not drawn) [butan-2-ol] | 3.1 ± 0.09 mPa·s | 803 ± 0.2 kg/m3 | 2.53 ± 0.07 mPa·s | 798.9 ± 0.2 kg/m3 | 2.13 ± 0.06 mPa·s | 795 ± 0.2 kg/m3 | 1.8 ± 0.05 mPa·s | 790.2 ± 0.2 kg/m3 | –
CCC(C)O (stereo not drawn) [butan-2-ol] + CC(=O)N(C)C | – | – | – | – | – | – | – | – | mass density ([2]; 298.15 K, x2 = 0): 803 ± 0.2 kg/m3; viscosity ([2]; 298.15 K, x2 = 0): 3.1 ± 0.09 mPa·s; mass density ([2]; 303.15 K, x2 = 0): 798.9 ± 0.2 kg/m3; viscosity ([2]; 303.15 K, x2 = 0): 2.53 ± 0.07 mPa·s; mass density ([2]; 308.15 K, x2 = 0): 795 ± 0.2 kg/m3; viscosity ([2]; 308.15 K, x2 = 0): 2.13 ± 0.06 mPa·s; mass density ([2]; 313.15 K, x2 = 0): 790.2 ± 0.2 kg/m3; viscosity ([2]; 313.15 K, x2 = 0): 1.8 ± 0.05 mPa·s
CCCC(C)O (stereo not drawn) [pentan-2-ol] | 3.5 ± 0.1 mPa·s | 805.4 ± 0.2 kg/m3 | 2.83 ± 0.082 mPa·s | 800.9 ± 0.2 kg/m3 | 2.35 ± 0.069 mPa·s | 796.9 ± 0.2 kg/m3 | 1.98 ± 0.058 mPa·s | 792.6 ± 0.2 kg/m3 | –
CC(C)O [propan-2-ol] | 2.05 ± 0.06 mPa·s | 781.1 ± 0.2 kg/m3 | 1.79 ± 0.05 mPa·s | 776.8 ± 0.2 kg/m3 | 1.56 ± 0.05 mPa·s | 772.4 ± 0.2 kg/m3 | 1.35 ± 0.04 mPa·s | 767.8 ± 0.2 kg/m3 | –
CC(C)O [propan-2-ol] + CC(=O)N(C)C | – | – | – | – | – | – | – | – | mass density ([2]; 298.15 K, x2 = 0): 781.1 ± 0.2 kg/m3; viscosity ([2]; 298.15 K, x2 = 0): 2.05 ± 0.06 mPa·s; mass density ([2]; 303.15 K, x2 = 0): 776.8 ± 0.2 kg/m3; viscosity ([2]; 303.15 K, x2 = 0): 1.79 ± 0.05 mPa·s; mass density ([2]; 308.15 K, x2 = 0): 772.4 ± 0.2 kg/m3; viscosity ([2]; 308.15 K, x2 = 0): 1.56 ± 0.05 mPa·s; mass density ([2]; 313.15 K, x2 = 0): 767.8 ± 0.2 kg/m3; viscosity ([2]; 313.15 K, x2 = 0): 1.35 ± 0.04 mPa·s
